Patent US8481576B2 (Abbott GmbH & Co. KG, priority 2004, dated 2013)
Where a name gives a salt, the structure may show the parent alone.

The compounds below were run against T1, h5-HT5A receptor (Homo sapiens, UniProt P47898) (assay: [3H]5-CT binding assay h5-HT5A). Conditions: membranes from HEK293 cells expressing h5-HT5A, 2.5 nM [3H]5-CT; read-out: Binding affinity 5-HT5A (Ki).
T1 construct: expressed in transfected cells; host or cells: HEK293
Method: 1. [^3H]5-CT binding assay h5-HT5A
Membranes from HEK293-cells, which permanently express the h5-HT5A receptor gene, were incubated in 100 mM Tris-HCl-buffer (pH 7.7), containing 1 mM EDTA in the presence of 2.5 nM [^3H]5-CT (600 μl total volume). The total binding is defined as the binding which is observed when the membranes are incubated alone in the presence of the radioligand. The inhibition induced by the compound is determined by incubation of cell membranes in the presence of the radioligand, and of different concentrations of the compound of interest. Unspecific binding is defined by the binding of [^3H]5-CT, which is obtained by incubation of the membranes as for the total binding but in the presence of 10 μM methiothepine. Following an incubation of 75 minutes at 30° C. the membrane suspension is filtered through GF/B-filters, wrapped in 0.03% PEI, wherein a Skatron® harvest system is used. The radioactivity retained in the filter is quantified by liquid scintillation counting.
In both assays, different concentrations of the test substances are used, and the Ki or the IC50 values are determined.

T1 sequence (P47898 whole entry): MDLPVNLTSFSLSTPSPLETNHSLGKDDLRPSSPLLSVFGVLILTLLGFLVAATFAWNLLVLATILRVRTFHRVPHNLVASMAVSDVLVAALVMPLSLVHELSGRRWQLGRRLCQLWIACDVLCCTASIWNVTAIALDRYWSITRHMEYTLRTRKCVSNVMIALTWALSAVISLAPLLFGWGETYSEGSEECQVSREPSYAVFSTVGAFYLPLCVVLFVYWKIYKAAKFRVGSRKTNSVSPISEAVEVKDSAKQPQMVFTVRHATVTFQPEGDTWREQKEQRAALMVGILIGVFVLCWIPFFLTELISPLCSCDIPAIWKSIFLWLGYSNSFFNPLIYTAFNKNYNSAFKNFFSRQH

Compound	Ki
COc1cccc(OC)c1CNC(=N)Nc1nc(-c2cc(C(F)(F)F)cc(C(F)(F)F)c2)cs1 [Example 19, N-{4-[3,5-bis(trifluoromethyl)phenyl]-1,3-thiazole-2-yl}-N′-(2,6-dimethoxybenzyl)guanidine hydrobromide]	50 to 500 nM
2-(2-{[[(2,6-dimethoxybenzyl)amino](imino)methyl]amino}-1,3-thiazole-4-yl)-N-(2-methoxybenzyl)acetamide (2E)-But-2-endioate [Example 51]	< 50 nM
COc1cccc(OC)c1CNC(=N)Nc1nc(-c2ccccc2)ns1 [Example 105, N′-(2,6-dimethoxybenzyl)-N-(3-phenyl-1,2,4-thiadiazole-5-yl)guanidine×0.5 (2E)-But-2-endioate]	> 500 nM
COc1cccc(OC)c1CNC(=N)Nc1nc(-c2ccc(N3CCOCC3)cc2)cs1 [Example 65, N-(2,6-dimethoxybenzyl)-N′-[4-(4-morpholine-4-ylphenyl)-1,3-thiazole-2-yl]guanidine hydrobromide]	< 50 nM
COc1ccccc1CNC(=N)Nc1ncc[nH]1 [Example 183, N-1H-imidazole-2-yl-N′-(2-methoxybenzyl)guanidine acetate]	50 to 500 nM
COc1cccc(OC)c1CNC(=N)Nc1nc2c(s1)CCCC2 [Example 94, N-(2,6-dimethoxybenzyl)-N′-(4,5,6,7-tetrahydro-1,3-benzothiazole-2-yl)guanidine acetate]	< 50 nM
COc1cccc(OC)c1CNC(=N)Nc1nc(C)c(C(=O)N(C)C)s1 [Example 102, 2-{[[(2,6-dimethoxybenzyl)amino](imino)methyl]amino}-N,N,4-trimethyl-1,3-thiazole-5-carboxamide]	< 50 nM
COc1cccc(OC)c1CNC(=N)Nc1nc(C(C)(C)C)cs1 [Example 36, N-(4-tert-butyl-1,3-thiazole-2-yl)-N′-(2,6-dimethoxybenzyl)guanidine]	< 50 nM
COc1cccc(OC)c1CNC(=N)Nc1nc(-c2ccncc2)cs1 [Example 45, N-(2,6-dimethoxybenzyl)-N′-(4-pyridine-4-yl-1,3-thiazole-2-yl)guanidine]	< 50 nM
COc1cccc(OC)c1CNC(=N)Nc1nc(-c2ccc(N3CCCC3)cc2)cs1 [Example 63, N-(2,6-dimethoxybenzyl)-N′-[4-(4-pyrrolidine-1-ylphenyl)-1,3-thiazole-2-yl]guanidine hydrobromide]	< 50 nM
COc1cccc(Cl)c1CNC(=N)Nc1nc(-c2ncc(F)cc2F)cs1 [Example 152, N-(2-chloro-6-methoxybenzyl)-N′-[4-(3,5-difluoropyridine-2-yl)-1,3-thiazole-2-yl]guanidine]	< 50 nM
COc1cccc(OC)c1CNC(=N)Nc1nc(C2CCCN2C)cs1 (centres unmarked) [Example 149, N-(2,6-dimethoxybenzyl)-N′-[4-(1-methylpyrrolidine-2-yl)-1,3-thiazole-2-yl]guanidine]	< 50 nM
COc1cccc(OC)c1CNC(=N)Nc1nc(CNC(=O)OC(C)(C)C)cs1 [Example 125, tert-butyl [(2-{[[(2,6-dimethoxybenzyl)amino](imino)methyl]amino}-1,3-thiazole-4-yl)methyl]carbamate]	< 50 nM
COc1cccc(F)c1CNC(=N)Nc1nccs1 [Example 9, N-(2-fluoro-6-methoxybenzyl)-N′-1,3-thiazole-2-ylguanidine]	< 50 nM
COc1cccc(Cl)c1CNC(=N)Nc1cc(C(C)(C)C)[nH]n1 [Example 213, N-(5-tert-butyl-1H-pyrazole-3-yl)-N′-(2-chloro-6-methoxybenzyl)guanidine]	< 50 nM
COc1cccc(OC)c1CNC(=N)Nc1nc2cc(Cl)c(C)cc2s1 [Example 171, N-(5-chlor-6-methyl-1,3-benzothiazole-2-yl)-N′-(2,6-dimethoxybenzyl)guanidine difumarate]	50 to 500 nM
CCNC(=Nc1nccs1)NCc1ccccc1OC [Example 26, N-ethyl-N′-(2-methoxybenzyl)-N″-1,3-thiazole-2-ylguanidine (2E)-But-2-endioate]	> 500 nM
CC(=O)Nc1cccc(OCCCNC(=N)Nc2nccs2)c1 [Example 22, N-[3-(3-{[imino(1,3-thiazole-2-ylamino)methyl]amino}propoxy)phenyl]acetamide]	> 500 nM
COc1cccc(OC)c1CNC(=N)Nc1ncc(C)s1 [Example 55, N-(2,6-dimethoxybenzyl)-N′-(5-methyl-1,3-thiazole-2-yl)guanidine]	< 50 nM
N-(2,6-dimethoxybenzyl)-N′-(5-methyl-4-phenyl-1,3-thiazole-2-yl)guanidine hydrobromide [Example 81]	< 50 nM
COc1ccccc1CNC(=N)Nc1nc(-c2ccccn2)cs1 [Example 41, N-(2-methoxybenzyl)-N′-(4-pyridine-2-yl-1,3-thiazole-2-yl)guanidine]	< 50 nM
C=CCNC(=O)c1csc(NC(=N)NCc2c(OC)cccc2OC)n1 [Example 193, N-allyl-2-{[[(2,6-dimethoxybenzyl)amino](imino)methyl]amino}-1,3-thiazole-4-carboxamide]	< 50 nM
COC(=O)Cc1csc(NC(=N)NCc2c(OC)cccc2OC)n1 [Example 49, Methyl-(2-{[[(2,6-dimethoxybenzyl)amino](imino)methyl]amino}-1,3-thiazole-4-yl)acetate]	< 50 nM
Cc1ccc(C)c(CNC(=N)Nc2nccs2)c1 [Example 4, N-(2,5-dinnethylbenzyl)-N′-1,3-thiazole-2-ylguanidine hydrochloride]	50 to 500 nM
COc1cccc(OC)c1CNC(=N)Nc1nc(C2CCCN2C(C)C)cs1 (centres unmarked) [Example 156, N-(2,6-dimethoxybenzyl)-N′-[4-(1-isopropylpyrrolidine-2-yl)-1,3-thiazole-2-yl]guanidine]	50 to 500 nM

Results, then the compound that gave them:

Ki	Compound
< 50 nM	COc1cccc(OC)c1CNC(=N)Nc1nc(-c2cc(Cl)cs2)cs1 [Example 124, N-[4-(4-chloro-2-thienyl)-1,3-thiazole-2-yl]-N′-(2,6-dimethoxybenzyl)guanidine]
< 50 nM	COc1cccc(OC)c1CNC(=N)Nc1nc(-c2cc(F)cc(F)c2)cs1 [Example 68, N-[4-(3,5-difluorophenyl)-1,3-thiazole-2-yl]-N′-(2,6-dimethoxybenzyl)guanidine hydrobromide]
< 50 nM	COc1cccc(OC)c1CNC(=N)Nc1nc(C2CCCN2S(=O)(=O)c2ccccc2)cs1 (centres unmarked) [Example 150, N-(2,6-dimethoxybenzyl)-N′-{4-[1-(phenylsulfonyl)pyrrolidine-2-yl]-1,3-thiazole-2-yl}guanidine]
< 50 nM	COc1ccccc1CNC(=N)Nc1nc(-c2ccc(F)cc2)c[nH]1 [Example 186, N-[4-(4-fluorophenyl)-1H-imidazole-2-yl]-N′-(2-methoxybenzyl)guanidine]
< 50 nM	COc1ccccc1CNC(=N)Nc1nc(-c2ccc3ccccc3c2)cs1 [Example 33, N-(2-methoxybenzyl)-N′-[4-(2-naphthyl)-1,3-thiazole-2-yl]guanidine]
< 50 nM	COc1ccccc1CNC(=N)Nc1nc(C)c(C)s1 [Example 40]
< 50 nM	COc1cccc(OC)c1CNC(=N)Nc1nc(-c2ccc(F)cc2)cs1 [Example 56, N-(2,6-dimethoxybenzyl)-N′-[4-(4-fluorophenyl)-1,3-thiazole-2-yl]guanidine]
< 50 nM	COc1cccc(OC)c1CNC(=N)Nc1nc(C(=O)NCc2ccccc2)cs1 [Example 194, N-benzyl-2-{[[(2,6-dimethoxybenzyl)amino](imino)methyl]amino}-1,3-thiazole-4-carboxamide]
< 50 nM	COc1cccc(OC)c1CNC(=N)Nc1nc(-c2ccc(F)cc2Cl)cs1 [Example 116, N-[4-(2-chloro-4-fluorophenyl)-1,3-thiazole-2-yl]-N′-(2,6-dimethoxybenzyl)guanidine]
< 50 nM	COc1cccc(OC)c1CNC(=N)Nc1nc(-c2cc(-c3ccccc3)no2)cs1 [Example 83, N-(2,6-dimethoxybenzyl)-N′-[4-(3-phenylisoxazole-5-yl)-1,3-thiazole-2-yl]guanidine hydrobromide]
< 50 nM	COc1cccc(OC)c1CNC(=N)Nc1nc(CN)cs1 [Example 154, N-[4-(aminomethyl)-1,3-thiazole-2-yl]-N′-(2,6-dimethoxybenzyl)guanidine hydrochloride]
< 50 nM	COc1cccc(OC)c1CNC(=N)Nc1ncc(-c2ccccc2)s1 [Example 66, N-(2,6-dimethoxybenzyl)-M-(5-phenyl-1,3-thiazole-2-yl)guanidine hydrobromide]
< 50 nM	COc1cccc(OC)c1CNC(=N)Nc1nc(-c2ccco2)cs1 [Example 117, N-(2,6-dimethoxybenzyl)-N′-[4-(2-furyl)-1,3-thiazole-2-yl]guanidine hydrobromide]
< 50 nM	COc1cccc(OC)c1CNC(=N)Nc1nc2cc(C)c(C)cc2s1 [Example 172, N-(2,6-dimethoxybenzyl)-N′-(5,6-dimethyl-1,3-benzothiazole-2-yl)guanidine fumarate]
< 50 nM	COc1cccc(OC)c1CNC(=N)Nc1nc(-c2ccc3c(c2)OCO3)cs1 [Example 69, N-[4-(1,3-benzodioxol-5-yl)-1,3-thiazole-2-yl]-N′-(2,6-dimethoxybenzyl)guanidine hydrobromide]
< 50 nM	COc1cccc(OC)c1CNC(=N)Nc1nc(-c2cccc(Cl)c2)cs1 [Example 89, N-[4-(3-chlorophenyl)-1,3-thiazole-2-yl]-N′-(2,6-dimethoxybenzyl)guanidine hydrobromide]
